Tested on: NEC model in neonatal rats
Assay: Induction and evaluation of NEC in neonatal rats (formula feeding by oral gavage plus hypoxia)
Format: in vivo, Sprague-Dawley rats
Conditions: HMO fractions/subfractions added to formula at their respective concentrations in pooled HMO at 10 mg/ml, 96 h post-partum
Excerpt: Instead, we tested HMO in a well-established NEC model with neonatal Sprague-Dawley rats. We induced time-pregnant rats by oxytocin and randomized their pups into the different intervention groups. Some pups were left with the dam to serve as breast-fed controls; others were formula-fed by oral gavage twice daily. All pups were exposed to hypoxia thrice daily. On day-of-life 4, we sacrificed the pups and analyzed their intestines for macroscopic and microscopic signs of NEC. The ileum was prepared for H&E staining and evaluated blindly by three independent investigators to determine NEC pathology scores. […] We then isolated HMO from pooled human milk and added them to the formula.
Each HMO fraction and subfraction was tested at concentrations that were based on their relative abundance in pooled HMO at 10 mg/mL, the average concentration in mature human milk. Assuming an average molecular weight of 1,000 g/mol for pooled HMO, 10 mg/mL is equivalent to 10 mM.
Briefly, pregnant time-dated Sprague-Dawley rats were induced at term using Pitocin (1-2 U per animal). Immediately after birth, neonates were randomized into one of the different study groups. Animals in the dam-fed (DF) group remained with the dam. All other animals were separated from the dam, housed in a temperature- and humidity-controlled incubator and orally gavaged with a special rodent formula (0.2 ml) twice daily. […] A 0.5 cm section of the terminal ileum was prepared for H&E staining per standard protocols and scored blindly by three investigators based on morphological changes that included epithelial sloughing, villus oedema, infiltration of neutrophils, apoptosis of villus enterocytes, crypt hyperplasia and misaligned nuclei in the epithelium. […] Pathology scores were plotted for each animal and the mean calculated per group. […] Differences between the groups were calculated by one-way ANOVA with the Kruskal-Wallis test and Dunn's multiple comparison test. […]

Structure (SMILES): CC(=O)N[C@H]1[C@H](O[C@H]2[C@@H](O)[C@@H](CO)O[C@@H](O[C@@H]([C@H](O)[C@@H](O)C=O)[C@H](O)CO)[C@@H]2O)O[C@H](CO[C@]2(C(=O)O)C[C@H](O)[C@@H](NC(C)=O)[C@H]([C@H](O)[C@H](O)CO)O2)[C@@H](O)[C@@H]1O[C@@H]1O[C@H](CO)[C@H](O)[C@H](O[C@]2(C(=O)O)C[C@H](O)[C@@H](NC(C)=O)[C@H]([C@H](O)[C@H](O)CO)O2)[C@H]1O [DSLNT, Disialyllacto-N-tetraose]
- ileum pathology score (listed as #2): significantly reduced NEC
- ileum pathology score (listed as HMO 2): 0.64±0.41
- ileum pathology score (listed as HMO #2): significantly reduced NEC pathology scores

— US9675649B2, “Disialyllacto-N-tetraose (DSLNT) or variants, isomers, analogs and derivatives thereof to prevent or inhibit bowel disease” (The Regents of the University of California, priority 2011, dated 2017)
